According to PubChem BioAssay (NCI):
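Cells were grown in 96-well plates and exposed to each compound for 48 hours at five concentrations; endpoints were interpolated linearly between bracketing concentrations, or set to the highest concentration if not reached. Definition used: TGI = concentration required for complete inhibition of growth.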

Key:
Experiment in all cases: inhibition of tumour cell growth, NCI panel, 48 h
786-0 renal = test system: 786-0 renal
ACHN renal = test system: ACHN renal
COLO 205 colon = test system: COLO 205 colon
EKVX NSCLC = test system: EKVX NSCLC
HCC-2998 colon = test system: HCC-2998 colon
HCT-15 colon = test system: HCT-15 colon
HOP-92 NSCLC = test system: HOP-92 NSCLC
HS 578T breast = test system: HS 578T breast
MALME-3M melanoma = test system: MALME-3M melanoma
OVCAR-3 ovarian = test system: OVCAR-3 ovarian
SF-539 CNS = test system: SF-539 CNS
SK-MEL-28 melanoma = test system: SK-MEL-28 melanoma
U251 CNS = test system: U251 CNS
MDA-MB-231 breast = test system: MDA-MB-231 breast

Row | Structure (SMILES) | TGI (786-0 renal) [µM] | TGI (ACHN renal) [µM] | TGI (COLO 205 colon) [µM] | TGI (EKVX NSCLC) [µM] | TGI (HCC-2998 colon) [µM] | TGI (HCT-15 colon) [µM] | TGI (HOP-92 NSCLC) [µM] | TGI (HS 578T breast) [µM] | TGI (MALME-3M melanoma) [µM] | TGI (OVCAR-3 ovarian) [µM] | TGI (SF-539 CNS) [µM] | TGI (SK-MEL-28 melanoma) [µM] | TGI (U251 CNS) [µM] | TGI (MDA-MB-231 breast) [µM]
1 | Cc1cc(S(=O)(=O)Nc2nc(N)nc(N3CCOCC3)n2)c(SCC(=O)O)cc1Cl | > 10 | > 10 | > 10 | > 10 | > 10 | > 10 | > 10 | > 10 | > 10 | > 10 | > 10 | > 10 | > 10 | –
2 | C=C(C)[C@@H]1CC[C@@H](C)[C@](O)([C@@H]2C[C@@H]([C@H](COC(=O)c3ccccc3)OC(=O)c3ccccc3)OC2=O)C1 | > 100 | > 100 | > 100 | > 100 | > 100 | > 100 | – | – | > 100 | > 100 | > 100 | > 100 | > 100 | > 100
3 | COc1ccc(-n2c3c(c4cc(O)ccc42)C(=O)c2ccccc2C3=O)cc1 | 11.5 | 56.7 | > 100 | 43 | – | > 100 | 47.5 | > 100 | > 100 | 27.2 | 11.5 | > 100 | – | 13.6
4 | CC(NC(=O)/C(C#N)=C/c1ccc2[nH]ccc2c1)c1ccccc1 (stereo not drawn) | 31.8 | > 64.9 | 30.7 | 50.4 | 34 | 27.6 | 33.5 | 66.4 | 71.2 | 58 | 34.9 | 36.9 | 29.4 | –
5 | NC(=O)C(=CN1C(=O)CC(=O)NC1=S)C(N)=O | > 100 | > 100 | > 100 | > 100 | > 100 | > 100 | > 100 | – | – | > 100 | > 100 | > 100 | > 100 | > 100
6 | Nc1nc(N)nc(-c2cnccn2)n1 | > 100 | > 100 | > 100 | > 100 | > 100 | > 100 | > 100 | – | > 100 | > 100 | > 100 | > 100 | > 100 | > 100
7 | O=C1Nc2ccccc2[C@]12C[C@H]2c1ccccn1 | > 100 | > 100 | > 100 | > 100 | > 100 | > 100 | > 100 | – | > 100 | > 100 | > 100 | > 100 | > 100 | > 100
